Data taken from patent US5858968A, “Method of treating or preventing type 1 diabetes by oral administration of insulin” (AutoImmune Inc., priority 1995, dated 1999).
Several values for one entry are separate records, joined by “and”; a condition that tells them apart may be missing. Equal entries are not always repeated. Entries after “also recorded” stand apart in the source; their conditions may differ.

Columns and labels:
Type in all cases: in vivo
NOD mice [1] = experiment: Glucose post oral insulin in fasting 7 week NOD mice; conditions: fasting 7 week old NOD mice
Method: In order to determine whether any endocrinologic (i.e. direct lowering of blood sugar) effects occurred following the feeding of insulin, 7 week old NOD mice (5 mice per group) were fed 1 mg of porcine insulin or 1 mg of myelin basic protein (obtained from Pel Freez, Rogers, Ariz.) as a control protein. Blood glucose was then measured over the next 24 hour period. As a positive control, a separate group of animals were injected subcutaneously with 20 micrograms of Porcine insulin. All animals were kept in the fasting state.

NOD mice [2] = experiment: Insulitis in NOD mice fed insulin (preliminary experiments); conditions: NOD mice fed 1 mg, vs PBS-fed NOD mice; data not shown
Description: Therefore, oral administration of insulin to NOD mice appeared to be affecting the infiltration of immune system cells into the pancreas and thus halting disease progression by preserving beta cell function.

NOD mice [3] = experiment: Effect of feeding porcine insulin on spontaneous diabetes in NOD mice
Description: NOD (non-obese diabetic mice) were obtained from Taconic Laboratories (Germantown, Mass.) at 4 weeks of age. There were a total of 30 animals in each of the groups mentioned below at the beginning of the experiment. At 4 1/2 weeks of age, animals were orally administered Porcine insulin (Novo Laboratories, Danbury, Conn.). Each animal received two treatments orally twice a week until 9 weeks of age. The mice were fed either saline (control) or 10 micrograms, 100 micrograms, or 1 milligram of Porcine insulin. The animals were fed (gavaged) with an 18 gauge ball-point needle (Popper and Sons, Inc., New Hyde Park, N.Y.). Beginning at 10 weeks the animals were then fed once a week for a total of 33 weeks. Beginning at 12 weeks the urine was tested weekly for the presence of glucose using Glucosuria test tape (Eli Lilly, Indianapolis, Ind.). If an animal tested 3+or higher on the glucose urine test, a serum sample was taken and blood glucose measured using a glucose analyzer (Beckman). If the blood glucose was 220 or higher, the animals were classified as diabetic and then sacrificed.

NOD mice [4] = experiment: Treatment of initial stages of diabetes in NOD mice; conditions: oral and aerosol administration, 0 to 1 mg, hyperglycemic NOD mice
Method: Insulin (0 to 1 mg as in Examples 1 and 2) will be administered to NOD mice which are suffering from hyperglycemia in an oral and aerosol form. The treatments will begin by weeks 12-20 of age, by which the serum glucose levels are at hyperglycemic concentrations in a certain percentage of animals prior to onset of diabetes.

[5] = subcutaneous injection of 20 micrograms

## insulin: Porcine insulin (Novo Laboratories, Danbury, Conn.), given orally by gavage, subcutaneously as positive control, or planned as aerosol
NOD mice [1]; 1 mg oral
  blood glucose after feeding: no drop in the blood glucose
  blood glucose over the next 24 hours: gradual decrease in blood glucose
  endocrinologic (metabolic) effects: no endocrinologic (metabolic) effects
NOD mice [1]; [5]
  decrease in glucose level: approximately 80 mg %
  period over which the glucose decrease persisted: 4 h
NOD mice [2]
  inflammatory immune system cells surrounding the pancreas (insulitis): fewer inflammatory immune system cells surrounding the pancreas
NOD mice [3]; NOD mice fed 1 mg insulin orally (gavage), vs saline control, diabetic = blood glucose 220 or higher
  development of diabetes: none of the mice went on to develop diabetes; also recorded: no diabetes developed; also recorded: None of the animals developed diabetes
NOD mice [3]; NOD mice fed 10 micrograms insulin orally, dose response fashion
  development of diabetes: diabetes developed
NOD mice [3]; NOD mice fed 10 micrograms of insulin
  blood sugar in individual animals which developed diabetes: 330 mg/dL and 420 mg/dL and 315 mg/dL and 459 mg/dL and 520 mg/dL and 487 mg/dL
NOD mice [3]; NOD mice fed 100 micrograms insulin orally, dose response fashion
  development of diabetes: diabetes developed
NOD mice [3]; NOD mice fed 100 micrograms of insulin
  blood sugar in individual animals that became diabetic: 500 mg/dL and 290 mg/dL and 600 mg/dL and 450 mg/dL
NOD mice [3]; NOD mice, all doses of orally administered insulin, dose-dependent
  incidence of diabetes: lower incidence of diabetes; also recorded: reduced the numbers of these mice which subsequently went on to develop diabetes
NOD mice [3]; NOD mice, highest dose of oral insulin (1 mg)
  treated animals that failed to develop diabetes: 100%
NOD mice [4]
  beta cell function: preservation of beta cell function
  serum glucose concentrations: reduction in serum glucose concentrations to near normal levels

B1: myelin basic protein: myelin basic protein (obtained from Pel Freez, Rogers, Ariz.) fed as a control protein (protein, UniProt P02686 1-304, looked up)
Myelin basic protein: MGNHAGKRELNAEKASTNSETNRGESEKKRNLGELSRTTSEDNEVFGEADANQNNGTSSQDTAVTDSKRTADPKNAWQDAHPADPGSRPHLIRLFSRDAPGREDNTFKDRPSESDELQTIQEDSAATSESLDVMASQKRPSQRHGSKYLATASTMDHARHGFLPRHRDTGILDSIGRFFGGDRGAPKRGSGKDSHHPARTAHYGSLPQKSHGRTQDENPVVHFFKNIVTPRTPPPSQGKGRGLSLSRFSWGAEGQRPGFGYGGRASDYKSAHKGFKGVDAQGTLSKIFKLGGRDSRSGSPMARR
NOD mice [1]; 1 mg oral
  blood glucose after feeding: no drop in the blood glucose
  blood glucose over the next 24 hours: gradual decrease in blood glucose
